Patent US12497460B2, “Anti-MSR1 antibodies and methods of use thereof” (REGENERON PHARMACEUTICALS, INC., priority 2018, dated 2025)
In brackets after ≈: the same amount, converted by molar mass. Entries after “also recorded” stand apart in the source; their conditions may differ.

Key:
[1] = Solubility in water of linker-payloads
S. aureus NRS384 = assay: Broth minimum inhibitory concentration (MIC) assay; type: cell-based; details: S. aureus NRS384, TSB, 24h, 37° C.
Description: To test the efficacy of rifamycin analogs of the disclosure in vitro, a broth growth inhibition assay was developed. For the assay, S. aureus NRS384 was grown in Tryptic Soy Broth (TSB) overnight, then sub-cultured 1:50 in fresh TSB and grown for an additional two hours. The culture was then pelleted via centrifugation and washed twice in PBS. The culture was then diluted to 1×10^4 cfu/mL in TSB and 50 μL of the suspension was added per well to a 96 well microtiter dish in duplicate. A dilution series of the indicated antibiotic (an analog according to the disclosure or a previously known analog Rifampicin) was added 1:1 for a final starting concentration of 1×10^−5 M with 1:3 dilutions.

[2] = test system: intracellular S. aureus NRS384 in THP-1 macrophages; assay: Intracellular S. aureus killing assay with rifamycin analogs (Example 44); type: cell-based; details: for Intracellular killing MIC: lowest concentration that resulted in intracellular S. aureus eradication, THP-1 macrophages; for intracellular S. aureus killing (in words): infected THP-1 macrophages, 2h treatment, compared to rifampicin
Description: The rifamycin analog compounds' activity against S. aureus was tested in an intracellular “killing” assay.
THP-1 monocytic cell line was grown in media (RMPI+10% FBS+1% Penicillin/Streptomycin), then seeded at a density of 1e5 cells/well in a 96 well plate and differentiated into macrophages for three days prior to infection using 200 nM PMA. An overnight culture of S. aureus NRS384 was grown in RPMI, washed twice with PBS and resuspended at 1e7 cfu/mL in PBS. THP-1 were washed with warm media (RMPI without FBS) to remove the Penicillin/Streptomycin and then infected with the S. aureus suspension at a multiplicity of infection of 10:1 (S. aureus: macrophages). Plates were spun at 300×g for 5 minutes to synchronize adhesion of the bacteria, then incubated at 37° C. for 2 hours. Free-floating bacteria were removed by washing 2× with warm media and remaining extracellular S. aureus were killed by addition of media containing gentamicin (50 ug/mL). After 1h, media was aspirated and the indicated compound was added to infected macrophages in media containing 50 μg/mL gentamicin to prevent extracellular growth of S. aureus. After 2h, plates were washed 2× with warm RPMI without FBS, and 100 ul of THP-1 lysis buffer (0.1% Triton in PBS) was added to each well. S. aureus survival was enumerated by colony forming units through serial dilution and plating onto TSA.

Structure (SMILES)	solubility [1] [µg/mL]	S. aureus Broth MIC (S. aureus NRS384) [µM]	Intracellular killing MIC [2]	intracellular S. aureus killing (in words) [2]
CCCC1O[C@@H]2C[C@H]3[C@@H]4C[C@H](F)C5=CC(=O)C=C[C@]5(C)[C@@]4(F)[C@@H](O)C[C@]3(C)[C@]2(C(=O)CNC(=O)OCc2ccc(NC(=O)[C@H](CCCNC(N)=O)NC(=O)[C@@H](NC(=O)CCOCCOCCOCCOCCNC(=O)CCC(=O)N3Cc4ccccc4C#Cc4ccccc43)C(C)C)cc2)O1 (stereo partly shown) [LP13]	20 (≈ 14.2 µM)			
CCCC1O[C@@H]2C[C@H]3[C@@H]4C[C@H](F)C5=CC(=O)C=C[C@]5(C)[C@@]4(F)[C@@H](O)C[C@]3(C)C2(C(=O)CNC(=O)OCc2ccc(NC(=O)[C@H](CCCNC(N)=O)NC(=O)[C@@H](NC(=O)[C@@H](CCCCNC(=O)COC3CCCCCc4c3nnn4CC3OC4OC5C(CO)OC(OC6C(CO)OC(OC7C(CO)OC(OC8C(CO)OC(OC9C(CO)OC(OC3C(O)C4O)C(O)C9O)C(O)C8O)C(O)C7O)C(O)C6O)C(O)C5O)NC(=O)CCOCCOCCOCCOCCNC(=O)CCC(=O)N3Cc4ccccc4C#Cc4ccccc43)C(C)C)cc2)O1 (stereo partly shown) [LP14]	26 (≈ 9.64 µM)			
CO[C@H]1/C=C/O[C@@]2(C)Oc3c(C)c(O)c4c(=O)c(c5n(C)c6cc(O)ccc6nc-5c4c3C2=O)NC(=O)/C(C)=C\C=C\[C@H](C)[C@H](O)[C@@H](C)[C@@H](O)[C@@H](C)[C@H](OC(C)=O)[C@@H]1C [R1d, Rifamycin 4-OH-Phenol N-Methyl Analogs]		0.37	>1.0E−06	
CO[C@H]1/C=C/O[C@@]2(C)Oc3c(C)c(O)c4c(=O)c(c5oc6cc(OC7CCNCC7)ccc6nc-5c4c3C2=O)NC(=O)/C(C)=C\C=C\[C@H](C)[C@H](O)[C@@H](C)[C@@H](O)[C@@H](C)[C@H](OC(C)=O)[C@@H]1C [R14]		0.041	1.0E−06	increased intracellular S. aureus killing capacity compared to rifampicin
CO[C@H]1/C=C/O[C@@]2(C)Oc3c(C)c(O)c4c(=O)c(c5oc6cc(OCCN(C)C)ccc6nc-5c4c3C2=O)NC(=O)/C(C)=C\C=C\[C@H](C)[C@H](O)[C@@H](C)[C@@H](O)[C@@H](C)[C@H](OC(C)=O)[C@@H]1C [R16a]		0.0015	4.0E−08	increased intracellular S. aureus killing capacity compared to rifampicin; also recorded: highest activity
